Consider ten compounds from US11130769B2 (Prelude Therapeutics Incorporated, priority 2018, dated 2021).

Some results are limits rather than exact numbers.

As usually defined, the IC50 is the midpoint of a concentration-inhibition curve.

The subject of this test is H929 cells. Description: Cell viability assay (H929 10 FBS). It counts as cell-based. The conditions noted are these: Homo sapiens, NCI-H929, 24 hours, read-out: H929_10FBS IC50. As for the experimental part:
Cell Viability Assay (H929 10 FBS)
Dispense 10 μL aliquot of prepared H929 cells (1:1 ratio of cells:Trypan Blue (#1450013, Bio-Rad)) onto cell counting slide (#145-0011, Bio-Rad) and obtain cell density and cell viability using cell counter (TC20, Bio-Rad). Remove appropriate volume of resuspended cells from culture flask to accommodate 4000 cells/well @ 10 μL/well. Transfer H929 cells to 50 mL conical (#430290, Corning). Spin down at 1000 rpm for 5 min using tabletop centrifuge (SPINCHRON 15, Beckman). Discard supernatant and resuspend cell pellet in modified RPMI 1640 (#10-040-CV, Corning) cell culture media containing 10% FBS (F2422-500 ML, Sigma), sodium pyruvate (100 mM) (#25-000-CL, Corning), HEPES buffer (1 M) (#25-060-CL, Corning) and glucose (200 g/L) (A24940-01, Gibco) to a cell density of 400,000 cells/mL. Dispense 10 μL of resuspended H929 cells per well in 384-well small volume TC treated plate (#784080, Greiner Bio-one) using standard cassette (#50950372, Thermo Scientific) on Multi-drop Combi (#5840310, Thermo Scientific) in laminar flow cabinet. Dispense compounds onto plates using digital liquid dispenser (D300E, Tecan). Incubate plates in humidified tissue culture incubator @ 37° C. for 24 hours. Add 10 μL of prepared CellTiTer-Glo® detection buffer (G7570, Promega) or ATPlite 1 Step detection reagent (#6016731, Perkin Elmer) to each well of 384-well plate using small tube cassette (#24073295, Thermo Scientific) on Combi multi drop, incubate @ RT for 30-60 min. Read plates with microplate reader (PheraStar, BMG Labtech) using 384 well luminescence mode.
As for `CN1C/C=C/[C@H](OC(=O)NC2CC2)[C@@H]2CC[C@H]2CN2C[C@@]3(CCCc4cc(Cl)ccc43)COc3ccc(cc32)S(=O)(=O)NC(=O)C1(C)C` [Example 206], the IC50 is less than 0.5 µM.
In the case of `CN(C)C1CN(C(=O)O[C@H]2/C=C/COC(C)(C)C(=O)NS(=O)(=O)c3ccc4c(c3)N(C[C@@H]3CC[C@H]32)C[C@@]2(CCOc3cc(Cl)ccc32)CO4)C1` [Example 311] it was less than 0.5 µM; in that of `CN(C)[C@@H]1CCN(C(=O)O[C@H]2/C=C/COC(C)(C)C(=O)NS(=O)(=O)c3ccc4c(c3)N(C[C@@H]3CC[C@H]32)C[C@@]2(CCOc3cc(Cl)ccc32)CO4)C1` [Example 310], less than 0.5 µM.
On to `CCOC(=O)N(C)[C@@H]1/C=C/COC(C)(C)C(=O)NS(=O)(=O)c2ccc3c(c2)N(C[C@@H]2CC[C@H]21)C[C@@]1(CCCc2cc(Cl)ccc21)CO3` [Example 252], for which the IC50 was greater than 1 µM.
Regarding `CN(C)C[C@H]1CCCN1C(=O)O[C@H]1/C=C/COC(C)(C)C(=O)NS(=O)(=O)c2ccc3c(c2)N(C[C@@H]2CC[C@H]21)C[C@@]1(CCCc2cc(Cl)ccc21)CO3` [Example 169], the IC50 is less than 0.5 µM.
In the case of `CO[C@H]1/C=C/CN2CCC[C@H]2C(=O)NS(=O)(=O)c2ccc3c(c2)N(C[C@@H]2CC[C@H]21)C[C@@]1(CCCc2cc(Cl)ccc21)CO3` [Example 100], the IC50 is greater than 1 µM.
Under `COC1CN(C(=O)O[C@H]2/C=C/COC(C)(C)C(=O)NS(=O)(=O)c3ccc4c(c3)N(C[C@@H]3CC[C@H]32)C[C@@]2(CCOc3cc(Cl)ccc32)CO4)C1` [Example 309] stands less than 1 µM; under `CO[C@@H]1/C=C/CN(C)C(=O)NS(=O)(=O)c2ccc3c(c2)N(C[C@@H]2CC[C@H]21)C[C@@]1(CCCc2cc(Cl)ccc21)CO3` [Example 108, (3R,6R,7R,8E,21S)-6′-Chloro-7-methoxy-11-methyl-14,14-dioxo-spiro[19-oxa-14-thia-1,11,13-triazatetracyclo[3.7.2.03,6.018,23]tetracosa-8,15,17,23-tetraene-21,1′-tetralin]-12-one], greater than 1 µM; under `CCO[C@@H]1CCN(C(=O)O[C@H]2/C=C/COC(C)(C)C(=O)NS(=O)(=O)c3ccc4c(c3)N(C[C@@H]3CC[C@H]32)C[C@@]2(CCOc3cc(Cl)ccc32)CO4)C1` [Example 308], less than 0.5 µM.
Regarding `CN(C)CCN(C)C(=O)O[C@H]1/C=C/COC(C)(C)C(=O)NS(=O)(=O)c2ccc3c(c2)N(C[C@@H]2CC[C@H]21)C[C@@]1(CCOc2cc(Cl)ccc21)CO3` [Example 307], the IC50 was less than 0.5 µM.
